For one experiment, the target named is Human ACC2 (Homo sapiens, UniProt O00763). Briefly: In vitro ACC2 inhibition assay (ADP-Glo), human ACC2. The format is biochemical. To be noted: 5 nM ACC2, 20 μM ATP, 20 μM acetyl-CoA. Background: In ADP-Glo the light output rises with the ADP produced.
For another experiment, the system named is C. albicans ATCC 90028. Briefly: Anti-Fungal Activity Assay (broth microtiter MIC), C. albicans. The format is cell-based, Candida albicans. To be noted: Candida albicans, ATCC90028, 48 h, 3 replicates; MIC recorded at 48 h; read-out: MIC C. albicans ATCC 90028. The method in brief:
(§1)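 Candida strains were grown from frozen stock on Sabouraud dextrose agar overnight at 35° C, then suspended directly in RPMI 1640+MOPS and quantified against standard curves. Broth microdilution MIC plates followed CLSI M27-A3; MICs were read visually against growth control at 48 h, with a 24 h read added for soraphen.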

Another experiment has as its system C. krusei ATCC 6258. Briefly: Anti-Fungal Activity Assay (broth microtiter MIC), C. krusei. It counts as cell-based, Candida krusei. To be noted: Pichia kudriavzevii, ATCC6258, 48 h, 3 replicates; MIC recorded at 48 h; read-out: MIC C. krusei ATCC 6258. The method in brief: as §1
Experiment [1] concerns C. parapsilosis ATCC 22019. Nature of the experiment: Anti-Fungal Activity Assay (broth microtiter MIC), C. parapsilosis. The conditions noted are these: Lodderomyces parapsilosis, ATCC22019, 48 h, 3 replicates; MIC recorded at 48 h; read-out: MIC C. parapsilosis ATCC 22019. The format is cell-based, Candida parapsilosis. The procedure, abridged: as §1
The target of a further experiment is Fungal ACC2 (UniProt Q00955). The conditions noted are these: read-out: Fungal ACC2 (IC50, in vitro ACC2 inhibition).
Sequence of Fungal ACC2 (Q00955 whole entry): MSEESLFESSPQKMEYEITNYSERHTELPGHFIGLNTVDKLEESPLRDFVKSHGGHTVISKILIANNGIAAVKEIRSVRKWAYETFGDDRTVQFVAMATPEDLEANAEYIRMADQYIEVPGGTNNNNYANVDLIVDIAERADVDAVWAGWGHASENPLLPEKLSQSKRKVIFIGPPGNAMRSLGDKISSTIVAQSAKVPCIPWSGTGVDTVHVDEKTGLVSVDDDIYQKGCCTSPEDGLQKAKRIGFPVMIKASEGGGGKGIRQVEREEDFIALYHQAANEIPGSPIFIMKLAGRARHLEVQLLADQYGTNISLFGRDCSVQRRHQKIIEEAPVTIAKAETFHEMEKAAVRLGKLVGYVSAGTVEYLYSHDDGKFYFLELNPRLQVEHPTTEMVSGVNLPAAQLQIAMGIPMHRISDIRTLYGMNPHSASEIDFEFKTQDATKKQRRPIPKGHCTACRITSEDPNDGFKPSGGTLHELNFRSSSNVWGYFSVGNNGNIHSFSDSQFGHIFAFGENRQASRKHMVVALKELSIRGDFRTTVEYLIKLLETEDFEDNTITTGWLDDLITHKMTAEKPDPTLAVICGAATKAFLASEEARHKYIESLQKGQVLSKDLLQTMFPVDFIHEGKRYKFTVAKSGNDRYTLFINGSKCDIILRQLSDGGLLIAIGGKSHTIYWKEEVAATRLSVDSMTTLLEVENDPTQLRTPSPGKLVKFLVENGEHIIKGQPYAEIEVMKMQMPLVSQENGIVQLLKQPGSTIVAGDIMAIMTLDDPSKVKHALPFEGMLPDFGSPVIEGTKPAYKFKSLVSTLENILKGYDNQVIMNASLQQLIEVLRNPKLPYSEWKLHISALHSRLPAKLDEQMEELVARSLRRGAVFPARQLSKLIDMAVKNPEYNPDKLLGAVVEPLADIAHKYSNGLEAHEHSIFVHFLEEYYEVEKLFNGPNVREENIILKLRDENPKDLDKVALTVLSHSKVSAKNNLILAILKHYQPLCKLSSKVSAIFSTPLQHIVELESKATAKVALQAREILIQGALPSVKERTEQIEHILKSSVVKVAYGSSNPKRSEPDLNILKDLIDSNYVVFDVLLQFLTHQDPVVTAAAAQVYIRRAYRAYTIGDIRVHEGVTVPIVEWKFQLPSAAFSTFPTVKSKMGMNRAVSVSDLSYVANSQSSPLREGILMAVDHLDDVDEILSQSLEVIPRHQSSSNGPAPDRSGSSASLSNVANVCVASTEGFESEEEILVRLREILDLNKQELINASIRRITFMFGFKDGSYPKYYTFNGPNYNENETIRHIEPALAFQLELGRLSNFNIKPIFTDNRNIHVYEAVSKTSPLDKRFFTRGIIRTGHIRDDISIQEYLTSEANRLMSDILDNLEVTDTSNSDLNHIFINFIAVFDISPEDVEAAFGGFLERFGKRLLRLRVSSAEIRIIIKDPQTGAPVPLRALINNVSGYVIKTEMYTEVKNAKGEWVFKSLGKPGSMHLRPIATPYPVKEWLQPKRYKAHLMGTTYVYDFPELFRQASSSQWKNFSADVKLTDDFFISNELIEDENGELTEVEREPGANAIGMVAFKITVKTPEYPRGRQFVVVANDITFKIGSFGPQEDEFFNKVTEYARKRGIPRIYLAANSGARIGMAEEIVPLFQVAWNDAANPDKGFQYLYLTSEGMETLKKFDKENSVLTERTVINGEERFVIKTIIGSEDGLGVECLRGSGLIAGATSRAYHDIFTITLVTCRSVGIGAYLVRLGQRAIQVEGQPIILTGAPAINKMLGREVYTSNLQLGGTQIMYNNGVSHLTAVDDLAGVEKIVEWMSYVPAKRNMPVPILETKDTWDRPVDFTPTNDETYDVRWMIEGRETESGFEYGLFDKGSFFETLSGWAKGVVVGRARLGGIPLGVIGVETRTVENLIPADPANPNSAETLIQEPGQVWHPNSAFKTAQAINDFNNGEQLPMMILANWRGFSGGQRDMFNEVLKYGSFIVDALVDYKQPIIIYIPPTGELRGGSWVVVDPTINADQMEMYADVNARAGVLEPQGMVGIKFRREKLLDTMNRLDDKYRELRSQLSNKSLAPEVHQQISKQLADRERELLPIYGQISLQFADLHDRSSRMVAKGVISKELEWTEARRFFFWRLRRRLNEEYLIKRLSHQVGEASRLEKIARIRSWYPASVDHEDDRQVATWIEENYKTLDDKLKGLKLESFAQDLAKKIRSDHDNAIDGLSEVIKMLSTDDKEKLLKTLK

The structures appear in SMILES notation. Converted amounts (≈) assume the structure as drawn. Some results are limits rather than exact numbers.

Sequence of Human ACC2 (O00763 whole entry): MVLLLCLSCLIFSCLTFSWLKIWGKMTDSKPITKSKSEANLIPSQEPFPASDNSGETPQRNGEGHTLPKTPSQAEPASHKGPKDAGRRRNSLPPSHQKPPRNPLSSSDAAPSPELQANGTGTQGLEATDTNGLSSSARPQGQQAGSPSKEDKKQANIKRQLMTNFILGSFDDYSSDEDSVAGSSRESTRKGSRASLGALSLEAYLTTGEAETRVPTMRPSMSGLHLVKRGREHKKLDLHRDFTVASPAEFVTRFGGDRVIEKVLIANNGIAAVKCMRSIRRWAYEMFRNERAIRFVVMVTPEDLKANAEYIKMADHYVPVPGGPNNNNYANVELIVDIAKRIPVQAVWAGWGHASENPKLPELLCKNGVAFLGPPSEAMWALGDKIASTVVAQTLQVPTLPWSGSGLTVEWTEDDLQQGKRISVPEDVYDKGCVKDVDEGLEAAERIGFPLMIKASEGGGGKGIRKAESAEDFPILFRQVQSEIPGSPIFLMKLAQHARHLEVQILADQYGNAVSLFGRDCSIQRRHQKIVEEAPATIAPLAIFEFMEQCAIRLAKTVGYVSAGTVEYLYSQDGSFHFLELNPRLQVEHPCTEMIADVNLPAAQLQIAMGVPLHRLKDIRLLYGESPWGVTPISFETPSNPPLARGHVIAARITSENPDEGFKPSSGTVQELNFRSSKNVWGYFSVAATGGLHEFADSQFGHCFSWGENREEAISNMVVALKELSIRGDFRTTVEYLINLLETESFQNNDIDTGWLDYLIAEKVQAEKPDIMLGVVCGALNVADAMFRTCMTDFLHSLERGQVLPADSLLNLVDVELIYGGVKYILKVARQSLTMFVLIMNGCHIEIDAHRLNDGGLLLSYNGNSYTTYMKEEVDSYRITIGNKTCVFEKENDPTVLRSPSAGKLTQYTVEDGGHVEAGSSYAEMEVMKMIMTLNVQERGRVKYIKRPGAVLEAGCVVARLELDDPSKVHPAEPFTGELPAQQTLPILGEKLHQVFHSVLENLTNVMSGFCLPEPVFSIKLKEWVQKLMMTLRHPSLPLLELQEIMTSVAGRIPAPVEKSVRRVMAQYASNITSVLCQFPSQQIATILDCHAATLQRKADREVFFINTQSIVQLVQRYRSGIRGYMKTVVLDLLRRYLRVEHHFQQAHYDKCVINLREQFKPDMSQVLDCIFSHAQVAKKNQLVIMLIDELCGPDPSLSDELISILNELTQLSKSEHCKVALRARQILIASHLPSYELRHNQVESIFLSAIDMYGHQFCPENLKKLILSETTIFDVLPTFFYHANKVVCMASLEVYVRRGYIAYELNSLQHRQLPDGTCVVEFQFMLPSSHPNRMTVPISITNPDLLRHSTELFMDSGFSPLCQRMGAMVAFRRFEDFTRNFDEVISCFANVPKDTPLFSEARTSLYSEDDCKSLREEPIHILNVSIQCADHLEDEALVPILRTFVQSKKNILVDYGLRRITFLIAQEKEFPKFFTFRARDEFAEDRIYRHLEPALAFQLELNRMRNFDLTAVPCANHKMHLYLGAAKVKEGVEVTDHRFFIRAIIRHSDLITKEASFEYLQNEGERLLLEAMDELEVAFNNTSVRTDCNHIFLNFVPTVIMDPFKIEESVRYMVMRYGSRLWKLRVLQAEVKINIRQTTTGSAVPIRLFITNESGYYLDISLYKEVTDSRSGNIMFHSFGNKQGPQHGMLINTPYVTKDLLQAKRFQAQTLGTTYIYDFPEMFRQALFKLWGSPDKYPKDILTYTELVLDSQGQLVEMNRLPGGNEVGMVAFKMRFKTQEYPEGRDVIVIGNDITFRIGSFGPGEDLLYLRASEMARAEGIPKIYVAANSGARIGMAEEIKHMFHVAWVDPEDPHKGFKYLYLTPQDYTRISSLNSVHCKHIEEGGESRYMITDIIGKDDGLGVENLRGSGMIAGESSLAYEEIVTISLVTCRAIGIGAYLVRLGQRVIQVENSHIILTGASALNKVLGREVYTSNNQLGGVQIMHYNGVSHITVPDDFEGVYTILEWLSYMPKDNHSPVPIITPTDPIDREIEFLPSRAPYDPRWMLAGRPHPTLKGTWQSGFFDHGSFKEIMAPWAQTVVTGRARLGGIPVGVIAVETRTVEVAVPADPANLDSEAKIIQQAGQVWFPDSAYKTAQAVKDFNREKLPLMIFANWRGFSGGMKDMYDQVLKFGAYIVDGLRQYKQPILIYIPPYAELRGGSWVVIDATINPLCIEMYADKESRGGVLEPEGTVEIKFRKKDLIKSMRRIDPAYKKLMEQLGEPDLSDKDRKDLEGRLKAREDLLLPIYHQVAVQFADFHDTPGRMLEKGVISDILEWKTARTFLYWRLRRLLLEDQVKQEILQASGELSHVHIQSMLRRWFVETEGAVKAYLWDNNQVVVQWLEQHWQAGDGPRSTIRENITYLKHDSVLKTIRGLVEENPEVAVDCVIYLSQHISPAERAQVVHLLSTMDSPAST

As to `COc1ccc(F)cc1[C@H](Cn1c(=O)n([C@H]2CCN(C)C2=O)c(=O)c2c(C)c(-n3nccn3)sc21)OC` [Compound I-168, 1-((R)-2-(5-fluoro-2-methoxyphenyl)-2-methoxyethyl)-5-methyl-3-((S)-1-methyl-2-oxopyrrolidin-3-yl)-6-(2H-1,2,3-triazol-2-yl)thieno[2,3-d]pyrimidine-2,4(1H,3H)-dione], the half-maximal inhibitory concentration (IC50) was 10 to 100 nM against Human ACC2 and 2 to 10 nM on Fungal ACC2. The MIC (in the experiment with C. albicans ATCC 90028; in the experiment on C. krusei ATCC 6258; in experiment [1]) was 2.1 to 4 µg/mL (≈ 3.97 to 7.57 µM) each time.

For `COc1ccc(F)cc1[C@H](COc1nc2sc(-n3nccn3)c(C)c2c(=O)n1[C@@H]1CNC(=O)C1)OCCO` [Compound I-103, 2-((R)-2-(5-fluoro-2-methoxyphenyl)-2-(2-hydroxy-ethoxy)ethoxy)-5-methyl-3-((S)-5-oxopyrrolidin-3-yl)-6-(2H-1,2,3-triazol-2-yl)thieno[2,3-d]pyrimidin-4(3H)-one], the values for the IC50 on Human ACC2 and at Fungal ACC2 were over 1000 nM and 10 to 100 nM, respectively. Moreover, the MIC (in the experiment with C. albicans ATCC 90028; in the experiment on C. krusei ATCC 6258; in experiment [1]) was 2.1 to 4 µg/mL (≈ 3.86 to 7.35 µM) in each case.

Regarding `COc1ccc(F)cc1[C@H](Cn1c(=O)n([C@@H]2CCN(C)C2=O)c(=O)c2c(C)c(-n3nccn3)sc21)OCCCO` [Compound I-155, 1-((R)-2-(5-fluoro-2-methoxyphenyl)-2-(3-hydroxypropoxy)ethyl)-5-methyl-3-((R)-1-methyl-2-oxopyrrolidin-3-yl)-6-(2H-1,2,3-triazol-2-yl)thieno[2,3-d]pyrimidine-2,4(1H,3H)-dione], the IC50 fell in the range of 2 to 10 nM at Human ACC2 and 0.7 to 2 nM at Fungal ACC2. Moreover, the minimal inhibitory concentration (MIC) (in the experiment with C. albicans ATCC 90028; in the experiment on C. krusei ATCC 6258; in experiment [1]) was 2.1 to 4 µg/mL (≈ 3.67 to 6.99 µM) in each case.

`COc1ccc(F)cc1[C@H](Cn1c(=O)n([C@@H]2CCNC2=O)c(=O)c2c(C)c(-n3nccn3)sc21)O[C@H]1C[C@H](O)C1` [Compound I-186, 1-((R)-2-(5-fluoro-2-methoxyphenyl)-2-((1r,3R)-3-hydroxycyclobutoxy)ethyl)-5-methyl-3-((R)-2-oxopyrrolidin-3-yl)-6-(2H-1,2,3-triazol-2-yl)thieno[2,3-d]pyrimidine-2,4(1H,3H)-dione]: the IC50 at Human ACC2 is 2 to 10 nM; on Fungal ACC2, 0.7 to 2 nM. Besides, the MIC (in the experiment with C. albicans ATCC 90028; in the experiment on C. krusei ATCC 6258; in experiment [1]) was 2.1 to 4 µg/mL (≈ 3.68 to 7.01 µM) each time.

Turning to `COCCO[C@@H](Cn1c(=O)n([C@@]2(C)CC(=O)N(C)C2)c(=O)c2c(C)c(-n3nccn3)sc21)c1cc(F)ccc1OC` [Compound I-122, 3-((S)-1,3-dimethyl-5-oxopyrrolidin-3-yl)-1-((R)-2-(5-fluoro-2-methoxyphenyl)-2-(2-methoxyethoxy)ethyl)-5-methyl-6-(2H-1,2,3-triazol-2-yl)thieno[2,3-d]pyrimidine-2.4(1H, 3H)-dione], the IC50 lay in the range of 10 to 100 nM against Human ACC2 and 2 to 10 nM on Fungal ACC2. For the same compound, the MIC (with C. albicans ATCC 90028; in the experiment with C. krusei ATCC 6258; in experiment [1]) was 2.1 to 4 µg/mL (≈ 3.58 to 6.82 µM) in each case.

As to `COc1ccccc1[C@H](Cn1c(=O)n([C@@H]2CCCN(C)C2=O)c(=O)c2c(C)c(-c3ncco3)sc21)OCCO` [Compound I-67, 1-((R)-2-(2-hydroxyethoxy)-2-(2-methoxyphenyl)ethyl)-5-methyl-3-((R)-1-methyl-2-oxopiperidin-3-yl)-6-(oxazol-2-yl)thieno[2,3-d]pyrimidine-2,4(1H,3H)-dione], the IC50 against Human ACC2 fell in the range of 10 to 100 nM; at Fungal ACC2 it was 2 to 10 nM. The MIC (with C. albicans ATCC 90028; in the experiment with C. krusei ATCC 6258; in experiment [1]) was 2.1 to 4 µg/mL (≈ 3.79 to 7.21 µM) in each case.

Regarding `COCCO[C@@H](Cn1c(=O)n([C@]2(C)CC(=O)N(C)C2)c(=O)c2c(C)c(-n3nccn3)sc21)c1cc(F)ccc1OC` [Compound I-120, 3-((R)-1,3-dimethyl-5-oxopyrrolidin-3-yl)-1-((R)-2-(5-fluoro-2-methoxyphenyl)-2-(2-methoxyethoxy)ethyl)-5-methyl-6-(2H-1,2,3-triazol-2-yl)thieno[2,3-d]pyrimidine-2,4(1H,3H)-dione], the IC50 on Human ACC2 was 10 to 100 nM; at Fungal ACC2, 0.7 to 2 nM. Besides, the MIC (in the experiment with C. albicans ATCC 90028; in the experiment with C. krusei ATCC 6258; in experiment [1]) was 2.1 to 4 µg/mL (≈ 3.58 to 6.82 µM) throughout.

For `COc1ccc(F)cc1[C@H](Cn1c(=O)n([C@@H]2CCN(C)C2=O)c(=O)c2c(C)c(-n3nccn3)sc21)O[C@H]1CC[C@@H](O)CC1` [Compound I-153, 1-((R)-2-(5-fluoro-2-methoxyphenyl)-2-(((1 s, 4S)-4-hydroxycyclohexyl)oxy)ethyl)-5-methyl-3-((R)-1-methyl-2-oxopyrrolidin-3-yl)-6-(2H-1,2,3-triazol-2-yl)thieno[2,3-d]pyrimidine-2,4(1H,3H)-dione], the figures for the IC50 against Human ACC2 and at Fungal ACC2 were 2 to 10 nM and 0.7 to 2 nM, respectively. Also, the MIC in the experiment on C. albicans ATCC 90028 is 0.075 to 0.24 µg/mL (≈ 0.122 to 0.392 µM); in the experiment on C. krusei ATCC 6258 it was 0.25 to 1 µg/mL (≈ 0.408 to 1.63 µM); in experiment [1], 0.25 to 1 µg/mL (≈ 0.408 to 1.63 µM).

For the compound `COc1ccccc1[C@H](Cn1c(=O)n([C@@H]2CCCNC2=O)c(=O)c2c(C)c(-c3ncco3)sc21)OCCO` [Compound I-61, 1-((R)-2-(2-hydroxyethoxy)-2-(2-methoxyphenyl)ethyl)-5-methyl-6-(oxazol-2-yl)-3-((R)-2-oxopiperidin-3-yl)thieno[2,3-d]pyrimidine-2,4(1H,3H)-dione], the IC50 is 10 to 100 nM against Human ACC2 and 0.7 to 2 nM at Fungal ACC2. In addition, the MIC (with C. albicans ATCC 90028; in the experiment on C. krusei ATCC 6258; in experiment [1]) was 2.1 to 4 µg/mL (≈ 3.88 to 7.4 µM) in each case.

With `COc1ccc(F)cc1[C@H](COc1nc2sc(-n3nccn3)c(C)c2c(=O)n1[C@H]1CNC(=O)C1)OCCO` [Compound I-102, 2-((R)-2-(5-fluoro-2-methoxyphenyl)-2-(2-hydroxy-ethoxy)ethoxy)-5-methyl-3-((R)-5-oxopyrrolidin-3-yl)-6-(2H-1,2,3-triazol-2-yl)thieno[2,3-d]pyrimidin-4(3H)-one], the IC50 was over 1000 nM against Human ACC2 and 10 to 100 nM at Fungal ACC2. Moreover, the minimum inhibitory concentration (MIC) (in the experiment on C. albicans ATCC 90028; with C. krusei ATCC 6258; in experiment [1]) was 2.1 to 4 µg/mL (≈ 3.86 to 7.35 µM) in each case.

As to `COc1ccccc1[C@H](Cn1c(=O)n(C2CCN(C)C2=O)c(=O)c2c(C)c(-c3ncco3)sc21)OCCO` (stereo partly drawn) [Compound I-54, 1-((R)-2-(2-hydroxyethoxy)-2-(2-methoxyphenyl)ethyl)-5-methyl-3-(1-methyl-2-oxopyrrolidin-3-yl)-6-(oxazol-2-yl)thieno[2,3-d]pyrimidine-2,4(1H,3H)-dione], the results for the IC50 against Human ACC2 and at Fungal ACC2 were 10 to 100 nM and 2 to 10 nM, respectively. Also, the MIC (with C. albicans ATCC 90028; in the experiment with C. krusei ATCC 6258; in experiment [1]) was 2.1 to 4 µg/mL (≈ 3.88 to 7.4 µM) each time.

`Cc1c(-n2nccn2)sc2c1c(=O)n([C@@H]1CCN(C)C1=O)c(=O)n2C[C@H](O[C@H]1CC[C@@H](O)CC1)c1cc(F)ccc1O` [Compound I-189, 1-((R)-2-(5-fluoro-2-hydroxyphenyl)-2-(((1s, 4S)-4-hydroxycyclohexyl)oxy)ethyl)-5-methyl-3-((R)-1-methyl-2-oxopyrrolidin-3-yl)-6-(2H-1,2,3-triazol-2-yl)thieno[2,3-d]pyrimidine-2,4(1H, 3H)-dione]: the IC50 lay within 2 to 10 nM against Human ACC2 and 0.7 to 2 nM on Fungal ACC2. Besides, the MIC (in the experiment on C. albicans ATCC 90028; in the experiment on C. krusei ATCC 6258; in experiment [1]) was 2.1 to 4 µg/mL (≈ 3.51 to 6.68 µM) in each case.

For the compound `COc1ccccc1[C@H](Cn1c(=O)n([C@@H]2CCN(C)C2=O)c(=O)c2c(C)c(-n3nccn3)sc21)OC` [Compound I-172, 1-((R)-2-methoxy-2-(2-methoxyphenyl)ethyl)-5-methyl-3-((R)-1-methyl-2-oxopyrrolidin-3-yl)-6-(2H-1,2,3-triazol-2-yl)thieno[2,3-d]pyrimidine-2,4(1H,3H)-dione], the IC50 fell in the range of 10 to 100 nM against Human ACC2 and 0.7 to 2 nM on Fungal ACC2. Besides, the MIC (in the experiment with C. albicans ATCC 90028; in the experiment on C. krusei ATCC 6258; in experiment [1]) was 2.1 to 4 µg/mL (≈ 4.11 to 7.83 µM) each time.

On to `COCCO[C@@H](Cn1c(=O)n(C2CCN(C(C)C)C2=O)c(=O)c2c(C)c(-n3nccn3)sc21)c1cc(F)ccc1OC` (stereo partly drawn) [Compound I-4, 1-((R)-2-(5-fluoro-2-methoxyphenyl)-2-(2-methoxy-ethoxy)ethyl)-3-(1-isopropyl-2-oxopyrrolidin-3-yl)-5-methyl-6-(2H-1,2,3-triazol-2-yl)thieno[2,3-d]pyrimidine-2,4(1H,3H)-dione], for which the IC50 was 10 to 100 nM at Human ACC2 and 2 to 10 nM on Fungal ACC2. Besides, the MIC (in the experiment on C. albicans ATCC 90028; in the experiment with C. krusei ATCC 6258; in experiment [1]) was 2.1 to 4 µg/mL (≈ 3.5 to 6.66 µM) in each case.

Turning to `COc1ccc(F)cc1[C@H](Cn1c(=O)n([C@@]2(C)CCCNC2=O)c(=O)c2c(C)c(-n3nccn3)sc21)OCCO` [Compound I-127, 1-((R)-2-(5-fluoro-2-methoxyphenyl)-2-(2-hydroxyethoxy)ethyl)-5-methyl-3-((S)-3-methyl-2-oxopiperidin-3-yl)-6-(2H-1,2,3-triazol-2-yl)thieno[2,3-d]pyrimidine-2,4(1H,3H)-dione], the IC50 against Human ACC2 was 10 to 100 nM; at Fungal ACC2, 0.7 to 2 nM. The MIC (with C. albicans ATCC 90028; in the experiment with C. krusei ATCC 6258; in experiment [1]) was 2.1 to 4 µg/mL (≈ 3.67 to 6.99 µM) each time.

For orientation: IC50 means the point on the concentration scale where inhibition reaches its midpoint. One may read the MIC as the least concentration at which growth counts as inhibited.

The values are drawn from patent publication US20190330224A1, “ACC INHIBITORS AND USES THEREOF” (Gilead Apollo, LLC, priority 2015, published 2019).
